Reference: US20150031892A1, “SPHINGOLIPID METABOLITE MIMETICS” (Zhejiang University, priority 2012, published 2015)

What was measured:
Type in all cases: cell-based
[1] = test system: SW620; experiment: MTT cytotoxicity assay, SW620 (colon cancer); conditions: Homo sapiens, SW-620
[2] = test system: SW480; experiment: MTT cytotoxicity assay, SW480 (colon cancer); conditions: Homo sapiens
[3] = test system: A431; experiment: MTT cytotoxicity assay, A431 (squamous carcinoma); conditions: Homo sapiens, A-431
Experimental: (§1) Cell survival after exposure to the sphingolipid metabolite mimetics was examined by MTT cytotoxicity assay. HepG2, A431, HeLa, MCF-7 and SA cells (7000 cells/well) were seeded in each well of a 96-well plate for 24 h. New medium was added to give final concentrations of 0 to 200 μM of the sphingolipid metabolite mimetics. Then, 50 μl of 1 mg/ml 3-(4,5-dimethylthiazol-2-yl)-2,5-diphenyltetrazolium bromide (MTT, Sigma-Aldrich Chemical) was added to each well for 4 h incubation at 37° C. The purple formazan formed was then solubilized by DMSO and absorbance at 570 nm was read by a microplate reader (Molecular Devices, Sunnyvale, Calif.).

[4] = test system: SA; experiment: MTT cytotoxicity assay, SA (pancreatic cancer as headed)
Experimental: as §1

[5] = test system: MCF-7; experiment: MTT cytotoxicity assay, MCF-7 (breast cancer); conditions: Homo sapiens, MCF7; Breast Cancer MCF-7, MTT
Experimental: as §1

[6] = test system: SiHa; experiment: MTT cytotoxicity assay, SiHa (ovarian cancer as headed); conditions: Homo sapiens, Cervical Cancer SiHa
[7] = test system: HepG2; experiment: MTT cytotoxicity assay, HepG2 (liver cancer); conditions: Homo sapiens
Experimental: as §1

| SMILES | IC50 [1] | IC50 [2] | IC50 [3] | IC50 [4] | IC50 [5] | IC50 [6] | IC50 [7] |
| --- | --- | --- | --- | --- | --- | --- | --- |
| C/C=C/C=C/C(=O)N[C@H](C(=O)NCCCCCCCCCCCCCCCCCC)C(C)O (stereo in doubt) [NZJU12, (2E,4E)-N-((2S,3R)-3-hydroxy-1-oxo-1-(octadecylamino)butan-2-yl)-2,4-hexadienoic acid amide] | ≥ 200 µM | 196 µM | 187 ± 2.41 µM | > 200 µM | 79.6 ± 2.34 µM | > 200 µM | 284 ± 8.3 µM |
| CCCCCCCCCCCCCCCCCCNC(=O)[C@@H](N)[C@@H](C)O [NZJU4, (2S,3R)-2-Amino-3-hydroxy-N-octadecylbutanamide] | 21.4 ± 1.24 µM | 27.5 ± 3.03 µM | 21.3 ± 1.72 µM |  | 27.4 ± 1.8 µM | 39.5 ± 0.88 µM | 44.5 ± 3.49 µM |
| C/C=C/C=C/C(=O)N[C@H](C(=O)NCCCCCCCCCCCC)[C@@H](C)O [NZJU10, (2E,4E)-N-((2S,3R)-3-hydroxy-1-oxo-1-(dodecylamino)butan-2-yl)-2,4-hexadienoic acid amide] | ≥ 200 µM | > 200 µM | 171 ± 12.1 µM | 189 ± 12.2 µM | 37.1 ± 4.11 µM | > 200 µM | > 400 µM |
| C/C=C/C=C/C(=O)N[C@H](C(=O)NCCCCCCCCCCCCCC)[C@@H](C)O [NZJU11, (2E,4E)-N-((2S,3R)-3-hydroxy-1-oxo-1-(tetradecylamino)butan-2-yl)-2,4-hexadienoic acid amide] | ≥ 200 µM | > 200 µM | > 200 µM | 184 ± 1.9 µM | 27.76 ± 0.14 µM | > 200 µM | > 400 µM |
| CCCCCCCCCCCCCCNC(=O)[C@@H](NC(=O)c1ccco1)[C@@H](C)O [NZJU14, N-((2S,3R)-3-hydroxy-1-oxo-1-(tetradecylamino)butan-2-yl)-Furan-2-carboxamide] | ≥ 200 µM | 110 ± 5.03 µM | 190 ± 6.86 µM | 148 ± 11.6 µM | 105 ± 5.03 µM | 127 ± 7.41 µM | > 400 µM |
| CCCCCCCCCCCCCCCCCCNC(=O)[C@@H](NC(=O)c1ccco1)[C@@H](C)O [NZJU15, N-((2S,3R)-3-hydroxy-1-oxo-1-(octadecylamino)butan-2-yl)-Furan-2-carboxamide] |  | 24.4 ± 0.7 µM | 19.9 ± 0.45 µM | 52.6 ± 6.02 µM | 21.4 ± 2.4 µM | 13.3 ± 1.05 µM | 42.3 ± 3.73 µM |
| CCCCCCCCCCCCCCNC(=O)[C@@H](NC(=O)c1ccccc1)[C@@H](C)O [NZJU17, N-((2S,3R)-3-hydroxy-1-oxo-1-(tetradecylamino)butan-2-yl)-benzamide] | ≥ 200 µM | ≥ 200 µM | 118 ± 9.09 µM | 56 ± 7.43 µM | 24.8 ± 6.75 µM | > 200 µM | 54.2 ± 3.95 µM |
| CCCCCCCCCCCCCCCCCCNC(=O)[C@@H](NC(=O)c1ccccc1)[C@@H](C)O [NZJU18, N-((2S,3R)-3-hydroxy-1-oxo-1-(octadecylamino)butan-2-yl)-benzamide] | ≥ 200 µM | 36.47 ± 0.23 µM | 113 ± 7.87 µM | > 400 µM | 31.7 ± 6.55 µM | 38.2 ± 2.52 µM | > 400 µM |
| CCCCCCCCCCCCCC(=O)N[C@H](C(=O)Nc1ccccc1)[C@@H](C)O [NZJU19, N-((2S,3R)-3-Hydroxy-1-oxo-1-(benzamino)butan-2-yl)-tetradecyl acid amide] | ≥ 200 µM | > 200 µM | > 200 µM | > 200 µM | > 400 µM | > 200 µM | > 400 µM |
| CCCCCCCCCCCCNC(=O)[C@@H](NC(=O)/C=C/c1ccccc1)[C@@H](C)O [NZJU24, (E)-N-((2S,3R)-3-hydroxy-1-oxo-1-(dodecylamino)butan-2-yl)-3-phenyl acrylic acid amide] | ≥ 200 µM | > 200 µM | > 200 µM | 154.8 ± 1.16 µM | > 200 µM | > 200 µM | > 200 µM |
| CCCCCCCCCCCCCCNC(=O)[C@@H](NC(=O)/C=C/c1ccccc1)[C@@H](C)O [NZJU25, (E)-N-((2S,3R)-3-hydroxy-1-oxo-1-(tetradecylamino)butan-2-yl)-3-phenyl acrylic acid amide] | ≥ 200 µM | 86.9 µM | 64.9 ± 4.87 µM | 80.9 ± 1.9 µM | 64.6 ± 4.54 µM | 35.8 ± 0.68 µM | 150 ± 4.37 µM |
| CCCCCCCCCCCCCCCCCCNC(=O)[C@@H](NC(=O)c1nccc2ccccc12)[C@@H](C)O [NZJU32, N-((2S,3R)-3-hydroxy-1-oxo-1-(octadecylamino)butan-2-yl)-isoquinoline-1-carboxamide] | 136 ± 13.3 µM | 30.7 µM | 44.1 ± 2.02 µM | 49.1 ± 4.72 µM | 30.8 ± 0.67 µM | 51.2 ± 3.46 µM | 96.9 ± 6.77 µM |
| CCCCCCCCCCCCCCCCCCNC(=O)[C@@H](NC(=O)c1cc2ccccc2o1)[C@@H](C)O [NZJU38, N-((2S,3R)-3-hydroxy-1-oxo-1-(octadecylamino)butan-2-yl)-benzofuran-2-carboxamide] |  | > 200 µM | 78.8 ± 6.99 µM | 162 ± 4.55 µM | 126 ± 7.19 µM | > 200 µM | > 200 µM |
| CCCCCCCCNC(=O)[C@@H](NC(=O)c1nccc2ccccc12)[C@@H](C)O [NZJU43, N-((2S,3R)-3-hydroxy-1-oxo-1-(octylamino)butan-2-yl)-isoquinoline-1-carboxamide] | 67.75 ± 0.099 µM |  | 26.9 ± 2.81 µM | 22.9 ± 2.59 µM | 63.2 ± 4.73 µM | 66 ± 5.48 µM | 88.2 ± 1.92 µM |
| CCCCCCCCCCCCNC(=O)[C@@H](NC(=O)c1cc2ccccc2n1C)[C@@H](C)O [NZJU50, N-((2S,3R)-3-hydroxy-1-oxo-1-(dodecylamino)butan-2-yl)-(N-methyl)indole-2-carboxamide] |  | 36 ± 2.87 µM | 169 ± 14.7 µM | 31.3 ± 1.14 µM |  | > 200 µM | > 200 µM |
| CCCCCCCCCCCCCCCCCCNC(=O)[C@@H](NC(=O)c1cc2ccccc2n1C)[C@@H](C)O [NZJU52, N-((2S,3R)-3-hydroxy-1-oxo-1-(octadecylamino)butan-2-yl)-(N-methyl)indole-2-carboxamide] |  | 36 ± 3.23 µM | 61 ± 1.82 µM | 36.37 ± 0.19 µM |  | 113 ± 12 µM | > 200 µM |
| CCCCCCCCCCCCNC(=O)[C@@H](NC(=O)c1ccc2cc(O)ccc2c1)[C@@H](C)O [NZJU53, N-((2S,3R)-3-hydroxy-1-oxo-1-(dodecylamino)butan-2-yl)-6-hydroxylnaphthoic-2-carboxamide] |  | 58.1 ± 4.37 µM | 33 ± 3.55 µM | 37.1 ± 1.17 µM |  | 27.4 ± 2.07 µM | 43 ± 4.04 µM |
| CCCCCCCCCCCCCCNC(=O)[C@@H](NC(=O)c1ccc2cc(O)ccc2c1)[C@@H](C)O [NZJU54, N-((2S,3R)-3-hydroxy-1-oxo-1-(tetradecylamino)butan-2-yl)-6-hydroxylnaphthoic-2-carboxamide] |  | 33.2 ± 1.08 µM | 24.4 ± 1.27 µM | 24.2 ± 0.83 µM |  | 30.1 ± 3.01 µM | 23.6 ± 1.16 µM |
| CCCCCCCCCCCCCCCCCCNC(=O)[C@@H](NC(=O)c1ccc2cc(O)ccc2c1)[C@@H](C)O [NZJU55, N-((2S,3R)-3-hydroxy-1-oxo-1-(octadecylamino)butan-2-yl)-6-hydroxylnaphthoic-2-carboxamide] |  | 160 ± 5.86 µM | 85.8 ± 1.73 µM | 84.8 ± 4.34 µM |  | 48.1 ± 4.67 µM | 73.7 ± 5.21 µM |
| CCCCCCCCCCCCNC(=O)[C@@H](NS(=O)(=O)c1ccc(C)cc1)[C@@H](C)O [NZJU56, N-((2S,3R)-3-hydroxy-1-oxo-1-(dodecylamino)butan-2-yl)-4-methylbenzsulfonamide] |  | 39.9 ± 2.54 µM | 25.2 ± 0.99 µM | 27.2 ± 0.99 µM |  | 31.6 ± 4.56 µM | 25.8 ± 0.52 µM |
| CCCCCCCCCCCCCCCCCCNC(=O)[C@@H](NS(=O)(=O)c1ccc(C)cc1)[C@@H](C)O [NZJU58, N-((2S,3R)-3-hydroxy-1-oxo-1-(octadecylamino)butan-2-yl)-4-methylbenzsulfonamide] |  | > 200 µM | 34 ± 1.03 µM | 47.9 ± 5.2 µM |  | 29.8 ± 2.23 µM | 75.8 ± 9.46 µM |
| CCCCCCCCCCCCNC(=O)[C@@H](NS(=O)(=O)c1cccs1)[C@@H](C)O [NZJU59, N-((2S,3R)-3-hydroxy-1-oxo-1-(dodecylamino)butan-2-yl)-2-thiophene sulfonamide] |  | 41 ± 2.25 µM | 22 ± 0.86 µM | 20.1 ± 1.65 µM |  | 30.9 ± 1.28 µM | 25.9 ± 1.21 µM |
| CCCCCCCCCCCCCCCCCCNC(=O)[C@@H](NS(=O)(=O)c1cccs1)[C@@H](C)O [NZJU61, N-((2S,3R)-3-hydroxy-1-oxo-1-(octadecylamino)butan-2-yl)-2-thiophene sulfonamide] |  | > 200 µM | > 200 µM | > 200 µM |  | > 200 µM | > 200 µM |
| CCCCCCCCCCCCCCCCCCNC(=O)[C@@H](NS(=O)(=O)c1ccc2ccccc2c1)[C@@H](C)O [NZJU63, N-((2S,3R)-3-hydroxy-1-oxo-1-(octadecylamino)butan-2-yl)-2-naphthylsulfonamide] |  | 69.1 ± 9.67 µM | 23.7 ± 1.46 µM | 21.2 ± 0.81 µM |  | 19.9 ± 3.31 µM | 19.8 ± 3.12 µM |
| CCCCCCCCCCCCCCNC(=O)[C@@H](NC(=O)C1=C[C@H](O)[C@H](O)[C@@H](O)C1)[C@@H](C)O [NZJU64, (3S,4R,5S)-3,4,5-trihydroxy-N-((2S,3R)-3-hydroxy-1-oxo-1-(tetradecylamino)butan-2-yl)cyclohex-1-enecarboxamide] |  | 47.8 ± 3.43 µM | 23.1 ± 2.97 µM | 33.7 ± 1.28 µM |  | 24.6 ± 2.04 µM | 29.9 ± 2.81 µM |
